Experimental data: patent US7794712B2, “Production of mutant strain of Aspergillus fumigatus, method of assay for inhibiting siderophore biosynthesis and diagnostic method for detecting likely Aspergillus fumigatus infection” (priority 2004, dated 2010)
Values joined by “and” are separate entries in the source; they are usually repeats but may differ in a detail not shown here. Equal entries are not always repeated. Non-standard residues stand in square brackets, D forms with d. Residues, ends and D or L forms follow the SMILES beside them. ξ: configuration not given here. Orn(N5-OH,N5-Ac) = CC(=O)N(O)CCC[C@H](N)C(=O)O; ξOrn(N(OH)Ac) = CC(=O)N(O)CCCC(N)C(=O)O

Key:
A. fumigatus ΔsidA = assay: Growth (dry weight) in supplemented GA medium, ΔsidA strain; type: cell-based, Aspergillus fumigatus; settings: for Restoration of growth of ΔsidA in the presence of human serum: 50 μM siderophore
Experimental: (§1) In this example the growth of various strains of A. fumigatus was monitored as follows. In a first experiment, A. fumigatus was inoculated into 5 ml volumes of YG medium or 5 ml of modified Grimm-Allen (GA) medium (1 g/L KHSO4, 3 g/L K2HPO4, 3 g/L (NH4)SO4, 20 g/L sucrose, 1 g/L citric acid, 2 mg/L thiamine, 20 μg/L CuSO4, 1 mg/L MnSO4, 5.5 mg/L ZnSO4, 810 mg/L MgSO4, pH 6.9) in 25 ml acid-washed flasks at a concentration of […]. GA medium was supplemented with […] FeCl3 where described. Human serum (male) was obtained from Sigma, stored frozen until use and added to media at a concentration of 10%. DesferriTAF and desferriferricrocin were purified from A. fumigatus cultures as described above and treated with 8-hydroxyquinoline to remove all bound iron. Siderophore solutions were filter-sterilized prior to addition to media.
(§2) In a second experiment, A. fumigatus was innoculated into 1 ml volumes of YM medium or 1 ml of the modified GA medium described above.
(§3) Alternatively, dry weights were measured by filtering the contents of each tube through pre-weighed, pre-dried Whatman #1 filters and rinsing thoroughly with distilled water. Filters were oven-dried and re-weighed.

A. fumigatus ΔsidA^R = assay: Growth (dry weight) in supplemented GA medium, rescued strain ΔsidA^R; type: cell-based, Aspergillus fumigatus
Experimental: as §1, §2, §3

[1] = tested on: A. fumigatus wild type (ATCC 13073); assay: Growth (dry weight) in supplemented GA medium, parental / wild type strain; type: cell-based, Aspergillus fumigatus
Experimental: as §1, §2, §3

A. fumigatus ATCC 13073 = assay: Growth of A. fumigatus in MEM made iron limiting with 2,2′-dipyridyl; type: cell-based, Aspergillus fumigatus; settings: MEM (5 ml) with 250 μM 2,2′-dipyridyl; holo-/apotransferrin 25 μM, FeCl3 50 μM
Text: The inventors have shown that holotransferrin but not apotransferrin supports the growth of A. fumigatus in iron-depleted medium. MEM was made iron limiting by the addition of the iron-chelator 2,2′-dipyridyl.

human holotransferrin = human holotransferrin (Homo sapiens, UniProt P02787); type: biochemical; settings: for Affinity of iron removal from holotransferrin: compared with ferrichrome; for Concentration able to remove some iron from holotransferrin / Concentration at which complete absence of holotransferrin was observed: holotransferrin 25 μM, 16 h, 37° C., pH 7.4
Experimental: Purified desferri-siderophores and commercially available ferrichrome were serially diluted to final concentrations of 2.5 mM, 250 μM, 25 μM, 2.5 μM and 250 nM (lanes 1-5, respectively). Siderophores were incubated with 12.5 μM human holo-Tf at 37 degrees for 16 hours. Iron saturation of transferrin was assessed by urea-PAGE (13).
Holotransferrin also was incubated with commercially available desferriferrichrome for comparison. The iron saturation of transferrin was monitored by urea-PAGE. Desferritriacetylfusarinine C, desferriferricrocin, and desferriferrichrome were diluted to concentrations ranging from 5 mM to 5 μM and incubated with holotransferrin (25 μM) in 50 mM Tris-150 mM NaCl-20 mM NaHCO3 (pH 7.4) buffer for 16 h at 37° C. The extent of iron saturation of transferrin at the end of the incubation period was determined by urea-PAGE.

A. fumigatus 13073 = assay: Siderophore secretion inhibitor assay (A440 after FeCl3 addition); type: cell-based, Aspergillus fumigatus; settings: 3 days
Text: In this example 96-well sterile polystyrene filter plates as described above with white Duropore membranes at the base of the plate (Millipore) were used. The plates include a thick plastic layer under the wells, which has a one-way valve function that directs fluid into a receiving 96-well plate when the filter plate is subjected to a vacuum manifold or a centrifugal force. This layer can be peeled off if the membranes are to be sampled (punched) later.
Cultures were set up in the filter plates, with controls and inhibitors to be tested. After inclubation, culture fluid was pulled into a 96-well receiver plate, using the Beckman centrifuge and a JS 5.3 rotor designed to take 96-well plates. FeCl3 was added to the receiver plates, and A430 (general siderophores) or A440 (max for TAF) was read. Growth was scored in the plate by reading A600.
To test this method, different antibiotics were used to show inhibition of siderophore production by A. fumigatus 13073, as no inhibitors for the SidA gene product are currently known. Suitable ranges of concentrations of amphotericin B (fungizone), hygromycin, and nystatin were calculated based on the literature. Spores were harvested from A. fumigatus 13073 into PBS Tween, then washed once with PBS and counted. They were then diluted into Neilands' medium (without citrate) to give solutions of 2×10^5 and 2×10^6/ml. 100 μl of 2× spores and 100 μl of 2× antibiotics to yield a volume of 200 μl of Neilands' medium in each well, with the desired final concentrations of spores, 10^5 or 10^6/ml.
Antibiotics were prepared as follows. Amphotericin B came as a liquid solution, 250 µg/ml. […] Therefore 0, 0.125, 0.25, 0.5, 1 and […] final concentration was used. Nystatin was stored it in ˜1 mg dry aliquots at −20 C, and was prepared at a concentration of 2 mg/ml in DMSO for dilution into Neilands' media. According to reported information, nystatin should be effective at 1.5 to 6.5 µg/ml; therefore, 0, 0.5, 1, 5, 10 and 50 µg/ml were used as the final concentrations. Hygromycin gold stock was in solution at 100 mg/ml, and 0, 25, 50, 100, 150 and 200 µg/ml were used as the final concentrations in Neilands' medium. Plates were incubated for 3 days at 37° C. with shaking.
To test for siderophores, 20 μL of a solution of 2 mM FeCl3 in 10 mM HCl was added to each well in the receiver plates and the A440 was recorded on a plate reader. […] An increase in A440 indicates a more intense orange-red colour that develops in the presence of ferrated siderophores. […] Because 3-day incubation produces conidia, shorter incubation periods may be preferable.
Three identical plates were set up: one filter plate and two sterile clear 96-well plates. The clear plates were used to score growth, and the filter plate was used to detect siderophores. Columns 1-6 contained Neilands' medium without citrate and amphotericin 0-2 at g/ml. Columns 7-12 contained Neilands' medium with citrate and amphotericin at […]. The rows were set up with A. fumigatus as described above, but two sets of each were set up to be in the two plates. The spores from the previous experiment were stored at −20° C. in PBS, in siliconized tubes, at 2×10^8 conidia/ml, to facilitate these experiments. Plates were incubated for 48 hours at 37° C. without shaking.
The filter plate was centrifuged at 1000×g for 10 minutes and the liquids caught in a clear non-sterile plate, to which FeCl3 was added. The plate was allowed to sit and develop orange colour, and was then read at 440 nm. The clear plates (one without Fe and one with Fe added to growth medium from the beginning) were read at 600 nm (A600). In the result, iron enhanced conidiation. Some wells of the filter plate were lightly conidiated and would not drain. These were hand pipetted.

[2] = 1 ml GA, 4 days 37° C., 5 μM FeCl3
[3] = 1 ml GA, 96 hours, FeCl3 5 μM or ferrated TAF 10 μM
[4] = 5 ml GA medium, 4 days 37° C., 5 μM FeCl3 or 10 μM TAF
[5] = 1 ml GA + 5 μM FeCl3 + 10% serum, 50 μM desferri-TAF or desferri-ferricrocin, 4 days
[6] = GA + FeCl3 + 10% human serum, desferrisiderophore 50 μM

Chain of human holotransferrin (P02787 20-698): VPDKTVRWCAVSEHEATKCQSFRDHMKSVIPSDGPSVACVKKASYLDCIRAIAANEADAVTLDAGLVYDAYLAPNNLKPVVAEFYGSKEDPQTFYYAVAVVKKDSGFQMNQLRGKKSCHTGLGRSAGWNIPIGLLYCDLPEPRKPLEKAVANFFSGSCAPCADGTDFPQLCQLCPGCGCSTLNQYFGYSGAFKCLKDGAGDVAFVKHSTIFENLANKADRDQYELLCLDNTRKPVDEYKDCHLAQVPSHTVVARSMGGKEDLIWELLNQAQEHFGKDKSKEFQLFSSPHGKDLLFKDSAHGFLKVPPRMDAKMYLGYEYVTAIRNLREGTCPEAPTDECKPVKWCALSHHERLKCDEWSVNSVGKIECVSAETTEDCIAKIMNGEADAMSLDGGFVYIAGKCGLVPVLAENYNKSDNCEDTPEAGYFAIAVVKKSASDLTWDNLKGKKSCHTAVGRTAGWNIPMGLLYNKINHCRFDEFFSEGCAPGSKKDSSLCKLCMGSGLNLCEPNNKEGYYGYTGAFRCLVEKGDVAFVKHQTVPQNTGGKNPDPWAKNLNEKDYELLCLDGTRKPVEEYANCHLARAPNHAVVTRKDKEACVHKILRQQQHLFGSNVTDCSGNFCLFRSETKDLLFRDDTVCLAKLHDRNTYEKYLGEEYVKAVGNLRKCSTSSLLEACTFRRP

[Cl][Fe]([Cl])[Cl] [FeCl3]
dry weight, ΔsidA (A. fumigatus ΔsidA; [2]): 7.1^1 mg | Growth (mg dry weight) mean ± S.D., ΔsidA (A. fumigatus ΔsidA; [3]): 1.4 ± 1.1 mg dry weight | dry weight, ΔsidA (A. fumigatus ΔsidA; [4]): 47.4^1 mg | Growth (mg dry weight) mean ± S.D., ΔsidAR (A. fumigatus ΔsidA^R; [3]): 7.5 ± 0.3 mg dry weight | dry weight, parental [1, 2]: 7.8^1 mg | Growth (mg dry weight) mean ± S.D., wild type [1, 3]: 6.5 ± 0.4 mg dry weight | dry weight, parental [1, 4]: 44.3^1 mg | Mean mycelial dry wt after 96 h (A. fumigatus ATCC 13073): 0.80^1 mg

Apotransferrin: iron-free human transferrin
Mean mycelial dry wt after 96 h (A. fumigatus ATCC 13073): 0.02^1 mg

CC(=O)NC1CCCN(O)C(=O)/C=C(/C)CCOC(=O)C(NC(C)=O)CCCN(O)C(=O)/C=C(/C)CCOC(=O)C(NC(C)=O)CCCN(O)C(=O)/C=C(/C)CCOC1=O (stereo not drawn) [TAF, N′,N″,N′″-triacetylfusarinine C]
Affinity of iron removal from holotransferrin (human holotransferrin): comparable to that of ferrichrome | dry weight, ΔsidA (A. fumigatus ΔsidA; [5]): 7.2^1 mg | Growth (mg dry weight) mean ± S.D., ΔsidA (A. fumigatus ΔsidA; [3]): 4.4 ± 1.5 mg dry weight | dry weight, ΔsidA (A. fumigatus ΔsidA; [4]): 46^1 mg | Growth (mg dry weight) mean ± S.D., ΔsidAR (A. fumigatus ΔsidA^R; [3]): 6.0 ± 0.1 mg dry weight | dry weight, parental [1, 5]: 9.7^1 mg | Growth (mg dry weight) mean ± S.D., wild type [1, 3]: 6.2 ± 0.5 mg dry weight | dry weight, parental [1, 4]: 41^1 mg | Stability in human serum: stable in human serum

CC(=O)NC1CCCN(O)C(=O)C=C(C)CCOC(=O)C(NC(C)=O)CCCN(O)C(=O)C=C(C)CCOC(=O)C(NC(C)=O)CCCN(O)C(=O)C=C(C)CCOC1=O (stereo not drawn) [desferri-TAF, Desferritriacetylfusarinine C]
Concentration able to remove some iron from holotransferrin (human holotransferrin): 500 µM | Concentration at which complete absence of holotransferrin was observed (human holotransferrin): 5 mM | Restoration of growth of ΔsidA in the presence of human serum (A. fumigatus ΔsidA): restored to wild-type levels | Growth (mg dry weight) mean ± S.D., ΔsidA (A. fumigatus ΔsidA; [6]): 12.3 ± 1.2 mg dry weight | Growth (mg dry weight) mean ± S.D., ΔsidAR (A. fumigatus ΔsidA^R; [6]): 11.3 ± 0.3 mg dry weight | Growth (mg dry weight) mean ± S.D., wild type [1, 6]: 10.1 ± 0.4 mg dry weight

C[C@@H]1[C@H](O)[C@@H](C)/C=C/C=C/CC/C=C/C=C/C=C/C=C/C(O[C@H]2O[C@H](C)[C@@H](O)[C@H](N)[C@@H]2O)CC2O[C@](O)(CC(O)C(O)CCC(O)CC(O)CC(O)CC(=O)O[C@H]1C)CC(O)C2C(=O)O (stereo partly drawn) [nystatin]
A440 (ferrated siderophores) (A. fumigatus 13073; nystatin 0.5 μg/ml, 100000 spores/ml): 0.341 and 0.414 and 0.359 | A440 (ferrated siderophores) (A. fumigatus 13073; nystatin 0.5 μg/ml, 1000000 spores/ml): 0.416 and 0.382 and 0.232 | A440 (ferrated siderophores) (A. fumigatus 13073; nystatin 1 μg/ml, 100000 spores/ml): 0.340 and 0.31 and 0.325 | A440 (ferrated siderophores) (A. fumigatus 13073; nystatin 1 μg/ml, 1000000 spores/ml): 0.412 and 0.492 and 0.329 | A440 (ferrated siderophores) (A. fumigatus 13073; nystatin 5 μg/ml, 100000 spores/ml): 0.048 and 0.042 and 0.044 | A440 (ferrated siderophores) (A. fumigatus 13073; nystatin 5 μg/ml, 1000000 spores/ml): 0.042 and 0.043 | A440 (ferrated siderophores) (A. fumigatus 13073; nystatin 10 μg/ml, 100000 spores/ml): 0.043 and 0.045 and 0.042 | A440 (ferrated siderophores) (A. fumigatus 13073; nystatin 10 μg/ml, 1000000 spores/ml): 0.042 and 0.043 and 0.050 | A440 (ferrated siderophores) (A. fumigatus 13073; nystatin 50 μg/ml, 100000 spores/ml): 0.048 and 0.052 and 0.051 | A440 (ferrated siderophores) (A. fumigatus 13073; nystatin 50 μg/ml, 1000000 spores/ml): 0.048 and 0.051

CC(=O)N(O)CCCC1NC(=O)CNC(=O)CNC(=O)CNC(=O)C(CCCN(O)C(C)=O)NC(=O)C(CCCN(O)C(C)=O)NC1=O (stereo not drawn) [desferriferrichrome] (cyclo(GGG[ξOrn(N(OH)Ac)][ξOrn(N(OH)Ac)][ξOrn(N(OH)Ac)]))
Concentration at which complete absence of holotransferrin was observed (human holotransferrin): 5 mM

CC(=O)N([O-])CCC[C@@H]1NC(=O)CNC(=O)[C@H](CO)NC(=O)CNC(=O)[C@H](CCCN([O-])C(C)=O)NC(=O)[C@H](CCCN([O-])C(C)=O)NC1=O.[Fe+3] [ferricrocin] (cyclo(GSG[Orn(N5-OH,N5-Ac)][Orn(N5-OH,N5-Ac)][Orn(N5-OH,N5-Ac)]))
Affinity of iron removal from holotransferrin (human holotransferrin): comparable to that of ferrichrome | dry weight, ΔsidA (A. fumigatus ΔsidA; [5]): 11.0^1 mg | dry weight, parental [1, 5]: 11.1^1 mg

CC(=O)N(O)CCC[C@@H]1NC(=O)CNC(=O)[C@H](CO)NC(=O)CNC(=O)[C@H](CCCN(O)C(C)=O)NC(=O)[C@H](CCCN(O)C(C)=O)NC1=O [desferriferricrocin] (cyclo(GSG[Orn(N5-OH,N5-Ac)][Orn(N5-OH,N5-Ac)][Orn(N5-OH,N5-Ac)]))
Concentration able to remove some iron from holotransferrin (human holotransferrin): 500 µM | Concentration at which complete absence of holotransferrin was observed (human holotransferrin): 5 mM | Restoration of growth of ΔsidA in the presence of human serum (A. fumigatus ΔsidA): restored to wild-type levels | Growth (mg dry weight) mean ± S.D., ΔsidA (A. fumigatus ΔsidA; [6]): 11.1 ± 1.1 mg dry weight | Growth (mg dry weight) mean ± S.D., ΔsidAR (A. fumigatus ΔsidA^R; [6]): 11.0 ± 1.2 mg dry weight | Growth (mg dry weight) mean ± S.D., wild type [1, 6]: 9.7 ± 2.00 mg dry weight

Holotransferrin: purified human iron-saturated transferrin
Mean mycelial dry wt after 96 h (A. fumigatus ATCC 13073): 1.30^1 mg
